Values quoted from earlier work as cited in patent publication US12714696B2, “Low dose fluralaner compositions for protection against parasitic invertebrate pest” (VIRBAC, priority 2019, dated 2026).
Where two headings read alike, the source gives them in different places.

Settings: cited from earlier work
[1] = Intravenous 12.5 mg/kg, single, dogs, n = 6, mean ± standard deviation
[2] = Oral 12.5 mg/kg, single, dogs, n = 6, mean ± standard deviation
[3] = Oral 25.0 mg/kg, single, dogs, n = 6, mean ± standard deviation
[4] = Oral 50.0 mg/kg, single, dogs, n = 6, mean ± standard deviation
[5] = literature data (Table 6; equals Oral 50.0 mg/kg of Table 5)

For `Cc1cc(C2=NOC(c3cc(Cl)cc(Cl)c3)(C(F)(F)F)C2)ccc1C(=O)NCC(=O)NCC(F)(F)F` (centres unmarked) [fluralaner, Fluralaner], the “AUC(0-d112)” value [1] is given as 87198 ± 11835 ng·days/mL, the “AUC(0→∞)” value [1] is given as 87779 ± 12004 ng·days/mL and the Cl [1] is given as 5.83 ± 0.83 mL/h/kg. For the same molecule, the Cmax [1] was 7109 ± 908 ng/mL, the MRT [1] was 20 ± 3 days and the Vz [1] was 3.1 ± 0.5 L/kg. For the same molecule, the t1/2 [1] was 15 ± 2 days, the tmax (Oral 12.5 mg/kg, single, dogs, n = 6, Median) was 1 (range 0.08-2) day and the “AUC(0-d112)” value [2] was 29665 ± 13858 ng·days/mL. For the same molecule, the “AUC(0→∞)” value [2] was 29922 ± 13808 ng·days/mL, the Cmax [2] was 2144 ± 860 ng/mL and the MRT [2] was 19 ± 2 days. For the same molecule, the t1/2 [2] was 13 ± 1 days, the tmax (Oral 25.0 mg/kg, single, dogs, n = 6, Median) was 1 (range 1-2) day and the “AUC(0-d112)” value [3] was 46115 ± 18932 ng·days/mL. For the same molecule, the “AUC(0→∞)” value [3] was 46416 ± 18929 ng·days/mL, the Cmax [3] was 3948 ± 1734 ng/mL and the MRT [3] was 15 ± 4 days. For the same molecule, the t1/2 [3] was 12 ± 3 days, the tmax (Oral 50.0 mg/kg, single, dogs, n = 6, Median) was 1 (range 0.17-3) day and the “AUC(0-d112)” value [4] was 70171 ± 26412 ng·days/mL. For the same molecule, the “AUC(0→∞)” value [4] was 70531 ± 26529 ng·days/mL, the Cmax [4] was 5419 ± 2086 ng/mL and the MRT [4] was 17 ± 3 days. For the same molecule, the t1/2 [4] was 14 ± 1 days, the AUCtot [5] was 70531 µg·days/L and the Cmax [5] was 5419 ng/mL. For the same molecule, the t1/2 [5] was 14 days and the tmax [5] was 1 days.
